For six compounds, IC50 results are on record in PMC7828231, “Delphinidin Increases the Sensitivity of Ovarian Cancer Cell Lines to 3-bromopyruvate” (International Journal of Molecular Sciences, 2021).

Each structure is given as a SMILES string. Where two headings read alike, the source gives them in different places. A value given as a limit tells only on which side of the number the result lay.

What all share (assay): Cytotoxicity, Neutral Red survival assay
Common to all, as to assay type: cell-based, human

Assay [1] relates to PEO1 cells. As to conditions: Homo sapiens. The protocol: (§1) SKOV3 and PEO1 cells were seeded in a clear 96-well plate at a density of 1 × 10^4 cells/well in 100-µL culture medium. MRC-5 cells were seeded at a density of 7.5 × 10^3/well and allowed to attach for 24 h at 37 °C. After incubation, the cells were treated with delphinidin chloride in a concentration range of 10–100 µM and 3-BP at concentrations between 5–25 µM for PEO1 and 10–50 µM for MRC-5 and SKOV3. Nontreated cells were used as a control. Stock solutions of tested substances were prepared in DMSO and their working solutions in culture media. The DMSO concentration was adjusted to 0.2% in all samples, which had no significant effect on the treated cells. After 24-h exposure time, the medium was removed and replaced with 100 µL of […] neutral red solution, and the cells were incubated at 37 °C for 1 h. Then, the cells were washed with PBS; fixed with 100 µL/well of 50% ethanol, 49% H2O and 1% glacial acetic acid and shaken (700 rpm) at room temperature for 20 min. Absorbance was measured at 540 nm against 620 nm.

In assay [2] the test system is SKOV3 cells. Conditions: Homo sapiens. The protocol:
as §1

Assay [3] relates to MRC-5 fibroblasts. As to conditions: Homo sapiens, MRC5, read-out: IC50 of cell survival (extrapolated). How it is done: as §1
The mark [4] stands for this setting: PEO1, PEO1, extrapolated from data obtained in the concentration range of 1–100 µM, read-out: IC50 of cell survival (extrapolated).
Setting [5] is: SK-OV-3, SKOV3, extrapolated from data obtained in the concentration range of 1–100 µM, read-out: IC50 of cell survival (extrapolated).
[6] abbreviates: PEO1, 24 h, PEO1, 24-h exposure, Neutral Red, ND = no reduction of survival in the concentration range studied, read-out: IC50 of cell survival.

The IC50 is the concentration that gives 50% inhibition.

Take `O=c1c(-c2ccc(O)cc2)coc2cc(O)cc(O)c12` [Genistein]: the IC50 in assay [1] (setting [4]) and in assay [2] (setting [5]) was greater than 100 µM in each case. Turning to `COc1cc(-c2[o+]c3cc(O)cc(O)c3cc2O)cc(OC)c1O` [Malvidin chloride], the IC50 in assay [3] is greater than 100 µM; in assay [1] (PEO1, read-out: IC50 of cell survival (extrapolated)), greater than 100 µM; in assay [2] (SK-OV-3, 24 h, read-out: IC50 of cell survival), 90 µM.

For `O=c1c(-c2ccc(O)cc2)coc2cc(O)ccc12` [Daidzein], the IC50 in assay [1] (setting [4]) and in assay [2] (setting [5]) was greater than 100 µM throughout. In the case of `O=c1c(O)c(-c2cc(O)c(O)c(O)c2)oc2cc(O)cc(O)c12` [Myricetin], the 50% inhibitory concentration (IC50) in assay [1] (setting [6]) is 196 µM. Take `Oc1cc(O)c2cc(O)c(-c3ccc(O)c(O)c3)[o+]c2c1` [Cyanidin chloride]: the IC50 in assay [1] (setting [6]) is 107 µM.

Regarding `COc1c(O)cc2oc(-c3ccc(O)cc3)cc(=O)c2c1O` [Hispidulin], the IC50 in assay [1] (PEO1, 24 h, read-out: IC50 of cell survival) is 181 µM; in assay [2] (SK-OV-3, read-out: IC50 of cell survival (extrapolated)), greater than 100 µM.
